How the values were obtained:
c-Kit kinase [1] = target: T1, c-Kit kinase (Homo sapiens, UniProt P10721); assay: Effect on c-Kit kinase phosphorylation by SCF stimulation (immunoblot); type: cell-based; set-up: in the small cell lung cancer cell line H-526 expressing c-Kit kinase; host or cells: H-526 small cell lung cancer cells; details: H-526 cells, 1 hour with test substance, SCF 5 minutes, phospho-c-kit (Tyr719) immunoblot
Method: 4-(3-Chloro-4-(cyclopropylaminocarbonyl)aminophenoxy)-7-methoxy-6-quinolinecarboxamide was tested for its effect on the phosphorylation of the c-Kit kinase molecule by SCF stimulation in the small cell lung cancer cell line H-526 expressing c-Kit kinase.
H-526 cells were cultured in a 5% CO2 incubator (37° c.) using an RPMI1640 medium containing 10% FCS. After culturing, H-526 cells were washed with PBS three times and were suspended in a BSA-RPMI1640 medium at 5.0×10^5 cells/ml. Each 1 ml of this cell suspension was inoculated to the well of a 24-well plate and the suspension was cultured in a 5% CO2 incubator (37° c.) for 6 hours. After 6-hours culturing, 1 ml of BSA-RPMI1640 containing a diluted test substance (4-(3-Chloro-4-(cyclopropylaminocarbonyl)aminophenoxy)-7-methoxy-6-quinolinecarboxamide) was added to each well and culturing was carried out in a 5% CO2 incubator (37° c.) for 1 hour. Additional culturing was then carried out in a 5% CO2 incubator (37° c.) for 5 minutes after the addition of 10 μl of SCF (10 μg/ml, R&D Corporation). After 5-minutes culturing, the cells were washed with PBS and 100 μl of SDS sample loading buffer was added to the cells to prepare a cell lysate sample. After the sample was heat-treated at 94° c. for 10 minutes, it was cryopreserved at −20° c. […]

H-526 tumor = assay: Effect on growth of H-526 tumor transplanted to nude mice; type: in vivo, Balb/c nu/nu mice
Method: H-526 cells were cultured in a 5% CO2 incubator (37° c.) using an RPMI1640 medium containing 10% FCS. After the culture medium was collected, H-526 cells were washed with PBS twice and were suspended in PBS at 5.0×10^7 cells/ml. This cell suspension (0.1 ml) was transplanted to the subcutaneous parts of the right flank of 6-week female Balb/c nu/nu mice (purchased from Charles River Laboratories, Inc.). After transplantation, administration of a test substance (4-(3-chloro-4-(cyclopropylaminocarbonyl)aminophenoxy)-7-methoxy-6-quinolinecarboxamide) was started at the point the tumor volume reached approximately 150 mm^3, and thus, oral administration was conducted twice daily for a period of 14 days. The test substance was suspended in a 0.5% methylcellulose solution (Wako Pure Chemical Industries Co., Ltd.) so as to give a dose of 0.1 ml/10 g body weight.
The tumor volume was measured with a caliper twice weekly during the administration period. The long and short diameters of the tumor were measured with a caliper and the tumor volume was calculated according to the equation: ½×long diameter×short diameter×short diameter. Here, the experiment was conducted in a vehicle control group of 10 animals (solvent-administered group) as well as in a test substance administered group of 5 animals.

c-Kit kinase [2] = target: T1, c-Kit kinase; assay: Effect on c-Kit kinase phosphorylation in H-526 tumor transplanted to nude mice (immunoblot); type: in vivo, Balb/c nu/nu mice; set-up: from tissue; host or cells: H-526 tumour xenograft extracted from Balb/c nu/nu mice; details: H-526 tumor in nude mice
Method: 0.1 ml of a H-526 cell suspension prepared at a concentration of 5.0×10^7 cells/ml, was transplanted to the subcutaneous parts of the right latus of 6-week female Balb/c nu/nu mice (purchased from Charles River Laboratories, Inc.). The animals were then divided into a vehicle control group (solvent-administered group) and a test substance (4-(3-chloro-4-(cyclopropylaminocarbonyl)aminophenoxy)-7-methoxy-6-quinolinecarboxamide) administered group at the point the tumor volume reached 300-1000 mm^3: the test substance was administered to the latter group. The extracted tumor was placed in a cell lysate buffer (50 mM HEPES (pH 7.4), 150 mM NaCl, 10% glycerol, 1% Triton X-100, 1.5 mm MgCl2, 1 mM EDTA, 100 mM NaF, 1 mM PMSF, 10 μg/ml aprotinin, 50 μg/ml leupeptin, 1 μg/ml peptatin A, 1 mM Na3VO4, 25 mM , βglycerophosphate, and phosphatase inhibitor cocktail 11) and homogenized. After centrifugation, the supernatant was protein quantified, and a 3×SDS sample loading buffer was added to prepare a cell lysate sample. Subsequently, the cell lysate was heat-treated at 94° c. for 10 minutes and cryopreserved at −20° c.
The cell lysate sample which was equivalent to 30 μg of protein was electrophoresed on a 4-20% gradient polyacrylamide gel (Daiichi Pure Chemicals Co., Ltd.). After electrophoresis, the sample was transferred to a PVDF membrane (Amersham Pharmacia Biotech Inc.) for 3 hours. In order to assay phosphorylated c-Kit, c-Kit and β-actin, immunoblot was performed using a phospho-c-kit (Tyr719) antibody (Cell Signaling Technologies, Inc.), an anti c-Kit antibody (Cell Signaling Technologies, Inc.) and an anti β-actin antibody (Sigma) as a primary antibody and an anti-rabbit IgG, HRP-linked antibody (Cell Signaling Technologies, Inc.) as a secondary antibody. After the membrane was washed, it was developed with a Super Signal (Pierce Biotechnology, Inc.).

[3] = tested on: small cell lung cancer cell line H-526 expressing c-Kit kinase; assay: Effect on cell proliferation stimulated by SCF; type: cell-based; details: Homo sapiens, NCI-H526; H-526 cells, SCF stimulation, 7th day, Cell Counting Kit-8; read-out: IC50 (concentration required for 50% inhibition of the cell proliferation)
Method: After culturing, H-526 cells were washed with PBS three times and were suspended in an RPMI1640 medium containing 0.1% BSA (Sigma Corporation) (hereinafter abbreviated as “BSA-RPMI1640”) at 1.0×10^5 cells/ml. […] After color development, the absorbance of each well was determined using a MTP-32 plate reader (Colona Electric Co., Ltd.) at a measuring wavelength of 450 nm and at a reference wavelength of 660 nm. The absorbance of each well was subtracted by the absorbance of the well without addition of SCF, and then the ratio of the absorbance of the well with addition of the test substance to the ratio of the absorbance of the well without addition of the test substance was determined. This ratio was used to calculate the concentration of the test substance required for 50% inhibition of the cell proliferation (IC50).

T1 sequence (P10721 26-976): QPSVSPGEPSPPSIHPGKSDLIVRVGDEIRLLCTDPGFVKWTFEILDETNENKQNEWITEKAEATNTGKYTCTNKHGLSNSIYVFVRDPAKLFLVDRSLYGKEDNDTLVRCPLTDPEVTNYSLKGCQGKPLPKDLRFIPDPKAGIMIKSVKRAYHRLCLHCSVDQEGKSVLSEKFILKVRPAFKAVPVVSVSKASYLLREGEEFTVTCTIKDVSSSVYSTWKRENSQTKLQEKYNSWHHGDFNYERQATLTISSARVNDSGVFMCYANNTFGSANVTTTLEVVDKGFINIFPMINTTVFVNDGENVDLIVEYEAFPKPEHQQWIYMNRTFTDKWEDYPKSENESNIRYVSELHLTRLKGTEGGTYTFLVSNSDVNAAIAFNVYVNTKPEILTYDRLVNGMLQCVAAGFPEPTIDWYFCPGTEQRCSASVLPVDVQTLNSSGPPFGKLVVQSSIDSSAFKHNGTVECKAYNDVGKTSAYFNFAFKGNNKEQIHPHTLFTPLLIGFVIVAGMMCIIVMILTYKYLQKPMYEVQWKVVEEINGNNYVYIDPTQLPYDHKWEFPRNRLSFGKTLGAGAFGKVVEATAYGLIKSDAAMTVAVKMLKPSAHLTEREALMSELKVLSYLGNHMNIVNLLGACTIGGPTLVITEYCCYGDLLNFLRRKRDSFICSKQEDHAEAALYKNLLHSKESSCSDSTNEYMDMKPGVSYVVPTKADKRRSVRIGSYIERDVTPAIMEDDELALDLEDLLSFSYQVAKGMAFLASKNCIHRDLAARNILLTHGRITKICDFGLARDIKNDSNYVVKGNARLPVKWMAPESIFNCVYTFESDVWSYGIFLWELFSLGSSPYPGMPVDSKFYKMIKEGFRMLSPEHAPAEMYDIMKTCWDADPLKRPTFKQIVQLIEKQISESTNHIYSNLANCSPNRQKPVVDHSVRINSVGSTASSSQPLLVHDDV

c-Kit and β-actin in tumor tissue (c-Kit kinase [2]; 30 or 100 mg/kg)	phosphorylated c-Kit in tumor tissue (c-Kit kinase [2]; 30 or 100 mg/kg)	IC50 [3]	phosphorylated c-Kit in tumor tissue (c-Kit kinase [2]; 160 mg/kg)	SMILES	c-Kit kinase phosphorylation in the presence of SCF (c-Kit kinase [1])	growth of the nude mouse transplanted H-526 tumor (tumor volume) (H-526 tumor; oral, twice daily for 14 days)	anti-tumor effect (H-526 tumor; H-526 tumor in nude mice, 160 mg/kg)
remained unchanged	completely inhibited phosphorylation	9.46 nM	–	COc1cc2nccc(Oc3ccc(NC(=O)NC4CC4)c(Cl)c3)c2cc1C(N)=O [4-(3-chloro-4-(cyclopropylaminocarbonyl)aminophenoxy)-7-methoxy-6-quinolinecarboxamide]	suppressed the c-Kit kinase phosphorylation that would take place in the presence of SCF in a concentration-dependent manner	suppressed the growth of the nude mouse transplanted H-526 tumor in a dose-dependent manner	–
–	–	–	partially inhibited phosphorylation	Cc1ccc(NC(=O)c2ccc(CN3CCN(C)CC3)cc2)cc1Nc1nccc(-c2cccnc2)n1 [STI571, reference compound]	–	–	showed little anti-tumor effect

From US20070117842A1, “Polymorph of 4-[3-chloro-4-(cyclopropylaminocarbonyl)aminophenoxy]-7-methoxy-6- quinolinecarboxamide and a process for the preparation of the same” (priority 2003, published 2007)
